Experiment [1] has as its target T1, human vanin-1 (Homo sapiens (Human), UniProt O95497). Nature of the experiment: Human Vanin-1 Enzyme Assay 3. The class given is biochemical. The following applies: 2 nM human vanin-1, 10 uM substrate, 15 min. As for the experimental part:
Human Vanin-1 Enzyme Assay 3.
(§1) The in vitro assay measures enzymatic cleavage of the fluorescently-labeled vanin substrate, pantetheine 7-amino-4-trifluoromethylcoumarin, by human vanin-1.
(§2) The vanin-1 protein was prepared in-house from a construct expressing the extracellular domain of human vanin-1 (GenBank ID NM_004666) preceded N-terminally by the honey bee melittin signal peptide, a GSG linker sequence, a His6X tag and a FLAG tag. The secreted, soluble enzyme was purified from the conditioned medium from a CHO cell line stably expressing the resulting protein. Enzyme purification was performed through sequential Ni NTA and size-exclusion chromatography steps.
On the day of the assay, dose response plates were prepared by diluting the inhibitors in DMSO at compound concentration 100-fold the final in-assay concentration. Concentration series were prepared by serially diluting in DMSO in a two-fold series for a total of 11 data points. Intermediate compound plates containing compound in 10% DMSO were then created by diluting the compounds 10-fold in assay buffer consisting of 50 mM Tris-HCl pH=8.0, 50 mM KCl, 0.005% Brij-35 and 1.5 mM cysteamine. To begin the assay 3 μL were transferred from the intermediate compound plate to the assay plate.
A working solution of human vanin-1 was prepared by diluting the enzyme stock to 2.5 nM in assay buffer. Next, 24 μL of the vanin-1 working solution were transferred to the assay plate. The enzyme reaction was then initiated by the addition of 3 μL of 100 μM pantetheine 7-amino-4-trifluoromethylcoumarin prepared in 5 uM acetic acid. The final concentrations in the assay were 2 nM human vanin-1 and 10 uM substrate. The final concentration of DMSO was 1%. The assay plates were incubated at room temperature for 15 minutes and before they were read on a Tecan Safire using a 405 nm excitation wavelength and a 505 nm emission wavelength for detection.

Experiment [2] has as its target T1, human vanin-1. The experiment in a line: Human Vanin-1 Enzyme Assay 1. The class given is biochemical. The following applies: 25 pM human vanin-1, 50 uM pantetheine 7-amino-4-trifluoromethylcoumarin, 30 min preincubation, 60 min. The protocol:
Human Vanin-1 Enzyme Assay 1.
as §1, §2
The test inhibitors were solubilized in DMSO to a stock concentration of 30 mM. On the day of the assay, dose response plates were prepared by diluting the inhibitors in DMSO at compound concentration 200-fold the final in-assay concentration. Intermediate concentrations were prepared by diluting in DMSO in a four-fold series for a total of 11 data points.
To prepare a working solution of human vanin-1, the enzyme was diluted to 33.3 pM in the assay buffer consisting of 50 mM Tris-HCl pH=8.0, 50 mM KCl, 0.005% Brij-35 and […] cysteamine. To begin the assay 100 nL was transferred from the compound plate to the assay plate. Next, 15 μL of the vanin-1 working solution were transferred to the assay plate. The inhibitor and enzyme were incubated at room temperature for 30 minutes. The enzyme reaction was then initiated by the addition of 5 μL of 200 μM pantetheine 7-amino-4-trifluoromethylcoumarin prepared in assay buffer. The final concentrations in the assay were 25 pM human vanin-1 and 50 uM substrate. The final concentration of DMSO was 0.5%. The assay plates were incubated for 60 minutes and before they were read on a Perkin Elmer EnVision Model 2103 using a 405 nm excitation wavelength and a 510 nm emission wavelength for detection.

Data on 32 molecules can be found in patent publication US10308615B2, “Heterocyclic compounds as inhibitors of Vanin-1 enzyme” (Pfizer Inc., priority 2015, dated 2019).

Molecules are shown by their SMILES.

T1 sequence (O95497 22-491): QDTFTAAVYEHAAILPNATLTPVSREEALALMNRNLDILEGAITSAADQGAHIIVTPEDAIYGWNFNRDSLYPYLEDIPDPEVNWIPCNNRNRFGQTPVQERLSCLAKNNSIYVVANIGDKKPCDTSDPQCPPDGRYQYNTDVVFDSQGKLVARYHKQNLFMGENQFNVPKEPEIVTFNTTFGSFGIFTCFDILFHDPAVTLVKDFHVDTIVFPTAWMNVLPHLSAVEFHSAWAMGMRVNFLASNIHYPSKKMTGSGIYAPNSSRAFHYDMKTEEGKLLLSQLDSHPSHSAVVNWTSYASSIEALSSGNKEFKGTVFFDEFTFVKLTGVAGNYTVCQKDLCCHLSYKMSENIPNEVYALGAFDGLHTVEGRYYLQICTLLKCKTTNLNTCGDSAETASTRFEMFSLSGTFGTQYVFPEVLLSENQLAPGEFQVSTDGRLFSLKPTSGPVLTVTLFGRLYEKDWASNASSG

In turn, `COc1ccc(C(=O)c2cnc(NCc3ccccc3)nc2)cc1` [Example 74, [2-(benzylamino)pyrimidin-5-yl](4-methoxyphenyl) methanone] yielded a half-inhibitory concentration (IC50) in experiment [1] of 736 nM.

`N#Cc1ccc(CNc2ncc(C(=O)c3cccc(C(F)(F)F)c3)cn2)cc1` [Example 76, 4-[({5-[3-(trifluoromethyl)benzoyl]pyrimidin-2-yl}amino)methyl] benzonitrile] showed an IC50 in experiment [1] of 112 nM.

`O=C(O)Cc1cccc(C(=O)c2cnc(NC3(c4cncnc4)CC3)nc2)c1` [Example 150, {3-[(2-{[1-(pyrimidin-5-yl)cyclopropyl]amino}pyrimidin-5-yl)carbonyl]phenyl}acetic acid]: the IC50 in experiment [2] was found to be 23.9 nM.

For `N#Cc1cc(Cl)cc(C(=O)c2cnc(NC3(c4cncnc4)CC3)nc2)c1` [Example 146, 3-chloro-5-[(2-{[1-(pyrimidin-5-yl)cyclopropyl]amino}pyrimidin-5-yl)carbonyl] benzonitrile], the midpoint of inhibition in experiment [2], the IC50, lay at 26 nM.

With `COc1ccc(C(=O)c2cnc(NC3(c4cncnc4)CC3)nc2)cc1C#N` [Example 161, 2-methoxy-5-[(2-{[1-(pyrimidin-5-yl)cyclopropyl]amino}pyrimidin-5-yl)carbonyl] benzonitrile], in experiment [2], the midpoint of inhibition, the IC50, lay at 1850 nM.

`COc1ccc(C(=O)c2cnc(NCc3cccc(C#N)c3)nc2)cc1` [Example 77, 3-({[5-(4-methoxybenzoyl)pyrimidin-2-yl]amino}methyl) benzonitrile] had an IC50 in experiment [1] of 998 nM.

Turning to `COc1ccc(C(=O)c2cnc(NCc3ccccn3)nc2)cc1` [Example 60, (4-methoxyphenyl) {2-[(pyridin-2-ylmethyl)amino]pyrimidin-5-yl}methanone], 89.5 nM corresponded to half-maximal inhibition in experiment [1] (IC50).

Molecule `COc1ccc(C(=O)c2cnc(NCc3ccc(OC(F)(F)F)cc3)nc2)cc1` [Example 75, (4-methoxyphenyl) (2-{[4-(trifluoromethoxy)benzyl]amino}pyrimidin-5-yl)methanone] gave a concentration for half-maximal inhibition (IC50) in experiment [1] of 617 nM.

In experiment [1], `O=C(c1cnc(NC2(c3cccnc3)CC2)nc1)c1cccc(C(F)(F)F)c1` [Example 71, (2-{[1-(pyridin-3-yl)cyclopropyl]amino}pyrimidin-5-yl)[3-(trifluoromethyl)phenyl]methanone] displayed an IC50 of 23.8 nM.

In experiment [1], `N#Cc1ccc(CNc2ncc(C(=O)c3ccc(C(F)(F)F)cc3)cn2)cc1` [Example 50, 4-[({5-[4-(trifluoromethyl)benzoyl]pyrimidin-2-yl}amino)methyl] benzonitrile] had an IC50 of 204 nM.

As for `O=C(c1ccc(C(F)(F)F)cc1)c1cnc(NCc2cccnc2)nc1` [Example 51, {2-[(pyridin-3-ylmethyl)amino]pyrimidin-5-yl}[4-(trifluoromethyl)phenyl]methanone], in experiment [1], inhibition was half-maximal at 44.9 nM (IC50).

On to `O=C(c1cnc(NCc2ccc(F)cc2)nc1)c1cccc(Cl)c1` [Example 36, (3-chlorophenyl){2-[(4-fluorobenzyl)amino]pyrimidin-5-yl}methanone], for which the IC50 in experiment [1] worked out at 31 nM.

Molecule `O=C(O)c1cccc(C(=O)c2cnc(NC3(c4cncnc4)CC3)nc2)c1` [Example 148, 3-[(2-{[1-(pyrimidin-5-yl)cyclopropyl]amino}pyrimidin-5-yl)carbonyl] benzoic acid] registered an IC50 in experiment [2] of 260 nM.

In experiment [2], `N#Cc1cccc(C(=O)c2cnc(NC3(c4ccc(C(N)=O)nc4)CC3)nc2)c1` [Example 152, 5-(1-{[5-(3-cyanobenzoyl)pyrimidin-2-yl]amino}cyclo-propyl)pyridine-2-carboxamide] had an IC50 of 77.7 nM.

Regarding `O=C(c1ccc(Cl)cc1)c1cnc(NCc2ccc(F)cc2)nc1` [Example 52, (4-chlorophenyl){2-[(4-fluorobenzyl)amino]pyrimidin-5-yl}methanone], in experiment [1], half-maximal inhibition (IC50) required 170 nM.

With `COc1ccc(CNc2ncc(C(=O)c3ccc(Cl)cc3)cn2)cc1` [Example 63, (4-chlorophenyl){2-[(4-methoxybenzyl)amino]pyrimidin-5-yl}methanone], the half-maximal inhibitory concentration (IC50) in experiment [1] was 569 nM.

For the molecule `COc1ccc(COc2ncc(C(=O)c3cccc(C(F)(F)F)c3)cn2)cc1` [Example 157, {2-[(4-methoxybenzyl)oxy]pyrimidin-5-yl}[3-(trifluoromethyl)phenyl]methanone], the IC50 in experiment [1] was over 2340 nM.

Regarding `COc1ccc(CNc2ncc(C(=O)c3ccc(C(F)(F)F)cc3)cn2)cc1` [Example 55, {2-[(4-methoxybenzyl)amino]pyrimidin-5-yl}[4-(trifluoromethyl)phenyl]methanone], the concentration for half-maximal inhibition (IC50) in experiment [1] is under 16.5 nM.

Molecule `O=C(c1cnc(OCc2ccc(OC(F)(F)F)cc2)nc1)c1cccc(C(F)(F)F)c1` [Example 158, (2-{[4-(trifluoromethoxy)benzyl]oxy}pyrimidin-5-yl)[3-(trifluoromethyl)phenyl]methanone] had an IC50 in experiment [1] of over 2890 nM.

Regarding `O=C(c1cnc(NCc2ccncc2)nc1)c1cccc(C(F)(F)F)c1` [Example 56, {2-[(pyridin-4-ylmethyl)amino]pyrimidin-5-yl}[3-(trifluoromethyl)phenyl]methanone], in experiment [1], the midpoint of inhibition, the IC50, lay at 36.2 nM.

With `O=C(c1cnc(NCc2ccnnc2)nc1)c1cccc(C(F)(F)F)c1` [Example 122, {2-[(pyridazin-4-ylmethyl)amino]pyrimidin-5-yl}[3-(trifluoromethyl)phenyl]methanone], 601 nM corresponded to half-maximal inhibition in experiment [1] (IC50).

`N#Cc1cccc(C(=O)c2cnc(NC3(c4ccc(O)nc4)CC3)nc2)c1` [Example 153, 3-[(2-{[1-(6-hydroxypyridin-3-yl)cyclopropyl]amino}pyrimidin-5-yl)carbonyl] benzonitrile] came in with an IC50 in experiment [2] of 307 nM.

Molecule `O=C(c1cnc(NCc2ccc(OC(F)(F)F)cc2)nc1)c1cccc(C(F)(F)F)c1` [Example 58, (2-{[4-(trifluoromethoxy)benzyl]amino}pyrimidin-5-yl)[3-(trifluoromethyl)phenyl]methanone] gave an IC50 in experiment [1] of 133 nM.

`O=C(c1ccc(C(F)(F)F)cc1)c1cnc(NCc2ccc(F)cc2)nc1` [Example 54, {2-[(4-fluorobenzyl)amino]pyrimidin-5-yl}[4-(trifluoromethyl)phenyl]methanone]: inhibition in experiment [1] was half-maximal at 35.4 nM (IC50).

`N#Cc1cccc(C(=O)c2cnc(NCC3CCC(O)CC3)nc2)c1` (centres unmarked) [Example 162, 3-[(2-{[(4-hydroxycyclohexyl)methyl]amino}pyrimidin-5-yl)carbonyl] benzonitrile] had an IC50 in experiment [2] of 72.6 nM.

The molecule `O=C(c1ccc(Cl)cc1)c1cnc(NCc2ccc(Cl)cc2)nc1` [Example 57, {2-[(4-chlorobenzyl)amino]pyrimidin-5-yl}(4-chlorophenyl) methanone] yielded an IC50 in experiment [1] of 889 nM.

Molecule `NC(=O)c1cccc(C(=O)c2cnc(NC3(c4cnccn4)CC3)nc2)c1` [Example 147, 3-[(2-{[1-(pyrazin-2-yl)cyclopropyl]amino}pyrimidin-5-yl)carbonyl] benzamide] displayed a half-maximal inhibitory concentration (IC50) in experiment [2] of 55.7 nM.

`NC(=O)c1cccc(C(=O)c2cnc(NC3(c4cncnc4)CC3)nc2)c1` [Example 149, 3-[(2-{[1-(pyrimidin-5-yl)cyclopropyl]amino}pyrimidin-5-yl)carbonyl] benzamide] registered an IC50 in experiment [2] of 25.6 nM.

Consider `N#Cc1cccc(C(=O)c2cnc(NC3(c4cccnc4)CC3)nc2)c1` [Example 2, 3-[(2-{[1-(pyridin-3-yl)cyclopropyl]amino}pyrimidin-5-yl)carbonyl]benzonitrile], for which, in experiment [1], the IC50 came to 2.1 nM.

For the molecule `O=C(c1cnc(NCc2ccc(Cl)cc2F)nc1)c1cccc(C(F)(F)F)c1` [Example 61, {2-[(4-chloro-2-fluorobenzyl)amino]pyrimidin-5-yl}[3-(trifluoromethyl)phenyl]methanone], it took 24.9 nM to reach half-maximal inhibition in experiment [1] (IC50).

In experiment [1], `COc1ccc(CNc2ncc(C(=O)c3ccc(OC)cc3)cn2)cc1` [Example 53, {2-[(4-methoxybenzyl)amino]pyrimidin-5-yl}(4-methoxyphenyl) methanone] registered an IC50 of 637 nM.

`N#Cc1cccc(C(=O)c2cnc(NC3(c4cnc(N)cn4)CC3)nc2)c1` [Example 151, 3-[(2-{[1-(5-aminopyrazin-2-yl)cyclopropyl]amino}pyrimidin-5-yl)carbonyl] benzonitrile] showed an IC50 in experiment [2] of 27.8 nM.
